From patent US20190365710A1, “METHODS OF TREATING CANCER” (GlaxoSmithKline Intellectual Property Development Limited, priority 2016, published 2019)
Where two headings read alike, the source gives them in different places.

What was measured:
[1] = test system: Bladder cancer cell lines; experiment: 6-day growth-death assay (Cell Titer Glo); type: cell-based, human; conditions: for IC50: Homo sapiens, read-out: Median gIC50, Bladder
Melanoma cell lines = experiment: 6-day growth-death assay (Cell Titer Glo); conditions: for IC50: Homo sapiens, read-out: Median gIC50, Melanoma
Method: (§1) The growth of all cell lines was evaluated over time across a wide range of seeding densities to identify conditions that permitted proliferation throughout the entire 6-day assay. Cells were plated at the optimal seeding density and after overnight incubation, a 20-point 2-fold titration of compound was added and plates were incubated for 6 days. A replicate plate of cells was harvested at the time of compound addition to quantify the starting number of cells (To). Values obtained after the 6 day treatment were expressed as a function of the To value and plotted against compound concentration. The To value was normalized to 100% and represents the number of cells at the time of compound addition. The data were fit with a 4 parameter equation to generate a concentration response curve and the growth IC50 (gIC50) was determined. The gIC50 is the midpoint of the ‘growth window’, the difference between the number of cells at the time of compound addition (T0) and the number of cells after 6 days (DMSO control). The growth-death assay can be used to quantify the net population change, clearly defining cell death (cytotoxicity) as fewer cells compared to the number at the time of compound addition (T0).

PRMT6 = PRMT6 (Homo sapiens, UniProt Q96LA8); experiment: biochemical
[2] = test system: 196 human cancer cell lines; experiment: 6-day growth-death assay (Cell Titer Glo); type: cell-based
[3] = test system: human renal cell carcinoma xenografts (ACHN); experiment: ACHN xenograft tumor growth; type: in vivo, SCID mice; conditions: for Body weight Difference (vs. vehicle): ACHN (ccRCC)
Lymphoma cell lines = experiment: 6-day growth-death assay (Cell Titer Glo); type: cell-based, human; conditions: for IC50: Homo sapiens, read-out: Median gIC50, Lymphoma
ccRCC cell lines = conditions: only at the highest concentration
NSC-LC cell lines = experiment: 6-day growth-death assay (Cell Titer Glo); type: cell-based, human; conditions: for IC50: Homo sapiens, read-out: Median gIC50, Lung (NSCLC); for Median % Ymin − T0: Lung (NSCLC)
Colon cancer cell lines = experiment: 6-day growth-death assay (Cell Titer Glo); type: cell-based, human
PRMT8 = PRMT8 (Homo sapiens, UniProt Q9NR22); experiment: biochemical
MDA-MB-435S = experiment: 6-day growth-death assay (Cell Titer Glo); type: cell-based, human
Method: as §1

[4] = test system: Toledo (human DLBCL) xenograft; experiment: Toledo xenograft tumor growth; conditions: for Body weight Difference (vs. vehicle): Toledo (DLBCL)
[5] = test system: Prostate cancer cell lines; experiment: 6-day growth-death assay (Cell Titer Glo); type: cell-based, human; conditions: 4 cell lines
PRMT5/MEP50 = PRMT5/MEP50 (Homo sapiens, UniProt O14744); experiment: PRMT family radioactive assay; type: biochemical; conditions: Type II; 60 minute SAM:Enzyme:Compound A preincubation
ACHN = experiment: 6-day growth-death assay (Cell Titer Glo); type: cell-based; conditions: Homo sapiens, 144 h, read-out: gIC50
Method: as §1

A375 = experiment: 6-day growth-death assay (Cell Titer Glo); type: cell-based; conditions: Homo sapiens, A-375, 144 h, read-out: gIC50
Method: as §1

SK-MEL-5 = experiment: 6-day growth-death assay (Cell Titer Glo); type: cell-based; conditions: Homo sapiens, SK-MEL-5, 144 h, read-out: gIC50
Method: as §1

HL-60 = experiment: 6-day growth-death assay (Cell Titer Glo); type: cell-based; conditions: Homo sapiens, HL-60, 144 h, read-out: gIC50
Method: as §1

[6] = Homo sapiens, 144 h, read-out: Median gIC50

Sequence of PRMT5/MEP50 (O14744 whole entry): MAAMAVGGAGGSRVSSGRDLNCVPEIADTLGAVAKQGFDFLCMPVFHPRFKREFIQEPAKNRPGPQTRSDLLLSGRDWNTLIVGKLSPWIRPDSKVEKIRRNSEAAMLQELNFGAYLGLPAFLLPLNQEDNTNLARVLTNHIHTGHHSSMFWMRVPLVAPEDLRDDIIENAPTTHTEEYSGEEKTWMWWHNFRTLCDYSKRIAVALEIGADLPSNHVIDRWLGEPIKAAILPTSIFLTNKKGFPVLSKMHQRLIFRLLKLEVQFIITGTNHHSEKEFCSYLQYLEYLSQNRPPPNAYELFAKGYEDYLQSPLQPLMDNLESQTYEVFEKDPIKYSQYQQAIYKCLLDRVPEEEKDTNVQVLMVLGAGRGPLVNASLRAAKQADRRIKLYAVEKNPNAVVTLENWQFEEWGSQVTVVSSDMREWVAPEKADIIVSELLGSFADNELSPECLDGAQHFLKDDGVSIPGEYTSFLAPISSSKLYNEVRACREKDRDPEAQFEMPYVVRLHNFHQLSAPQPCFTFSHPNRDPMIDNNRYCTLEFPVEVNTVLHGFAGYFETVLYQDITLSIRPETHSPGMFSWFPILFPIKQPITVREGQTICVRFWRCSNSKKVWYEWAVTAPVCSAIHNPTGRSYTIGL
Sequence of PRMT5/MEP50 (Q9BQA1 whole entry partner): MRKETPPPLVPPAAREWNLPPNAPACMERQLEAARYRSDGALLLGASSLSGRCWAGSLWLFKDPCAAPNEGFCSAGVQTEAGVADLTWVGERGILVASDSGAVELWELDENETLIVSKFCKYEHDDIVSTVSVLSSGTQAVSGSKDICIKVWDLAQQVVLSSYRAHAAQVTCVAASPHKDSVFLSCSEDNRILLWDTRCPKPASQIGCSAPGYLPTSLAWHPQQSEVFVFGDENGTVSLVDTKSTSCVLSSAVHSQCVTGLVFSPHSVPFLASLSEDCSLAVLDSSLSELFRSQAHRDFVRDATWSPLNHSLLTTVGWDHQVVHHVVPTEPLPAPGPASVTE
Sequence of PRMT8 (Q9NR22 whole entry): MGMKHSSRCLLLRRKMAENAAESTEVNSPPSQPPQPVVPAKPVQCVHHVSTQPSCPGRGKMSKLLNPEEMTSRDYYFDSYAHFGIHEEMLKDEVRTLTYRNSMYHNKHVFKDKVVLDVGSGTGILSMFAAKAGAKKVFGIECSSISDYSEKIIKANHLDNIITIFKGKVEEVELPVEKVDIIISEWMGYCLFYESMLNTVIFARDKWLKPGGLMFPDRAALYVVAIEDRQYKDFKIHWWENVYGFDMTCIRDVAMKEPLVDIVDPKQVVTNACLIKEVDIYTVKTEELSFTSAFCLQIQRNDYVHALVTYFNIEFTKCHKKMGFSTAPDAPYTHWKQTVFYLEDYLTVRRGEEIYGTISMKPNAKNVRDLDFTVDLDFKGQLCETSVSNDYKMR
Sequence of PRMT6 (Q96LA8 whole entry): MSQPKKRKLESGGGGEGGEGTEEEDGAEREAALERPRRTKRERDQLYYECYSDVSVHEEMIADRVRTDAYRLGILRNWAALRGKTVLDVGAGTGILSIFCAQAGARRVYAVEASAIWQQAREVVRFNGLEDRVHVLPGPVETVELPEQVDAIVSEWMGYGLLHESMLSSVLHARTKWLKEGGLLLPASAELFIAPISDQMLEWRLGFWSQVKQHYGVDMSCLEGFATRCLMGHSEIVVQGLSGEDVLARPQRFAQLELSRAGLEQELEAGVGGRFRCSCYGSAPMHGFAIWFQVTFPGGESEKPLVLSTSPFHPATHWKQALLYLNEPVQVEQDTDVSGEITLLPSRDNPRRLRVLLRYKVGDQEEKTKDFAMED

In the case of `CCOCC1(COCC)CCC(c2n[nH]cc2CN(C)CCNC)CC1` [Compound A], the “% Cytotoxic (cell lines with negative Ymin−T0)” value (from here on “% Cytotoxic”) ([1]; 6-day, Bladder, 18 cell lines) is reported as 0%, the “% gIC100 < 2 μM (of cell lines)” value ([1]; 6-day, Bladder, 18 cell lines) is reported as 0% and the “Median % Ymin − T0” value ([1]; Bladder, MTAP High) is reported as 658%. For the same compound, the “Median gIC100” value ([1]; Bladder, MTAP High) was 29.3 µM, the “Median % Ymin − T0” value ([1]; Bladder, MTAP Low) was 257% and the “Median gIC100” value ([1]; Bladder, MTAP Low) was 29.3 µM. The IC50 ([1]; MTAP High) was 7600 nM, the IC50 ([1]; MTAP Low) was 1600 nM and the “% Cytotoxic” value (Melanoma cell lines; 6-day, Melanoma, 7 cell lines) was 0%. The “% gIC100 < 2 μM (of cell lines)” value (Melanoma cell lines; 6-day, Melanoma, 7 cell lines) was 0%, the “Median gIC100” value (Melanoma cell lines; 6-day, Melanoma, 7 cell lines) was 29.33 µM and the IC50 (Melanoma cell lines; MTAP High) was 1900 nM. The IC50 (Melanoma cell lines; MTAP Low) was 300 nM, the “Median % Ymin − T0” value (Melanoma cell lines; Melanoma, MTAP High) was 214% and the “Median gIC100” value (Melanoma cell lines; Melanoma, MTAP High) was 29.4 µM. The “Median % Ymin − T0” value (Melanoma cell lines; Melanoma, MTAP Low) was 53%, the IC50 (PRMT6) was 3 to 5 nM and the “% Cytotoxic” value ([2]; 6-day, Total, 196 cell lines) was 23%. For the same compound, the “% gIC100 < 2 μM (of cell lines)” value ([2]; 6-day, Total, 196 cell lines) was 4%, the IC50 [2, 6] was 2120 nM and the “Body weight Difference (vs. vehicle)” value ([3]; 150 mg/kg QD oral, Day 59) was −3%. For the same compound, the “Body weight Difference (vs. vehicle)” value ([3]; 300 mg/kg QD oral, Day 59) was −4%, the “Body weight Difference (vs. vehicle)” value ([3]; 450 mg/kg QD oral, Day 59) was −7% and the “Body weight Difference (vs. vehicle)” value ([3]; 600 mg/kg QD oral, arm terminated at day 31) was −17%. For the same compound, the body weight loss ([3]; ACHN, 600 mg/kg daily, dosing group terminated on day 31) was “Significant body weight loss”, the “% Cytotoxic” value (Lymphoma cell lines; 6-day, Lymphoma, 59 cell lines) was 54% and the “% gIC100 < 2 μM (of cell lines)” value (Lymphoma cell lines; 6-day, Lymphoma, 59 cell lines) was 14%. For the same compound, the IC50 (Lymphoma cell lines; MTAP High) was 600 nM, the IC50 (Lymphoma cell lines; MTAP Low) was 100 nM and the “Median % Ymin − T0” value (Lymphoma cell lines; Lymphoma, MTAP High) was 17%. The “Median gIC100” value (Lymphoma cell lines; Lymphoma, MTAP High) was 24.4 µM, the “Median % Ymin − T0” value (Lymphoma cell lines; Lymphoma, MTAP Low) was −89% and the “Median gIC100” value (Lymphoma cell lines; Lymphoma, MTAP Low) was 5.3 µM. The “concentration at which caspase cleavage occurred” value (ccRCC cell lines) was 30 µM, the “% Cytotoxic” value (NSC-LC cell lines; 6-day, NSC-LC, 25 cell lines) was 16% and the “% gIC100 < 2 μM (of cell lines)” value (NSC-LC cell lines; 6-day, NSC-LC, 25 cell lines) was 0%. For the same compound, the “Median gIC100” value (NSC-LC cell lines; 6-day, NSC-LC, 25 cell lines) was 29.33 µM, the IC50 (NSC-LC cell lines; MTAP High) was 5000 nM and the IC50 (NSC-LC cell lines; MTAP Low) was 3000 nM. For the same compound, the “Median % Ymin − T0” value (NSC-LC cell lines; MTAP High) was 141%, the “Median % Ymin − T0” value (NSC-LC cell lines; MTAP Low) was 237% and the “% Cytotoxic” value (Colon cancer cell lines; 6-day, Colon, 34 cell lines) was 3%. For the same compound, the “% gIC100 < 2 μM (of cell lines)” value (Colon cancer cell lines; 6-day, Colon, 34 cell lines) was 0%, the “Median gIC100” value (Colon cancer cell lines; 6-day, Colon, 34 cell lines) was 29.33 µM and the IC50 (Colon cancer cell lines; [6]) was 5510 nM. For the same compound, the IC50 (PRMT8) was 3 to 5 nM, the gIC100 (MDA-MB-435S) was 29.33 ± 0.00 µM and the “Body weight Difference (vs. vehicle)” value ([4]; second study, 37.5 mg/kg QD oral, Day 25) was −5%. For the same compound, the “Body weight Difference (vs. vehicle)” value ([4]; second study, 75 mg/kg BID oral, Day 25) was −4%, the “Body weight Difference (vs. vehicle)” value ([4]; second study, 75 mg/kg QD oral, Day 25) was −5% and the “Body weight Difference (vs. vehicle)” value ([4]; second study, 150 mg/kg QD oral, Day 25) was −7%. For the same compound, the “Body weight Difference (vs. vehicle)” value ([4]; 150 mg/kg QD oral, Day 28) was −4%, the “Body weight Difference (vs. vehicle)” value ([4]; 300 mg/kg QD oral, Day 28) was −3% and the “Body weight Difference (vs. vehicle)” value ([4]; 450 mg/kg QD oral, Day 28) was −8%. For the same compound, the “Body weight Difference (vs. vehicle)” value ([4]; 600 mg/kg QD oral, Day 28) was −7%, the body weight loss ([4]; Toledo, any dose group) was “No significant body weight loss” and the “% Cytotoxic” value [5] was 0%. The “% gIC100 < 2 μM (of cell lines)” value [5] was 0%, the inhibition of activity (PRMT5/MEP50) was “failed to inhibit” and the IC50 (ACHN) was 100 ± 50 nM. The IC50 (A375) was 50 ± 30 nM, the IC50 (SK-MEL-5) was 90 ± 30 nM and the IC50 (HL-60) was 20 ± 10 nM.
